Measured values from patent US20250032430A1, “USES OF RHODOQUINONE FOR THE TREATMENT OF DISEASE” (Whitehead Institute for Biomedical Research, priority 2021, published 2025).

What was measured:
[1] = target: T1, SDH complex (Homo sapiens, UniProt O14521+P21912+P31040+Q99643); assay: SDH forward/reverse activity (succinate oxidation, fumarate reduction) by stable isotope tracing in cells; assay type: cell-based
T1 construct: endogenous in cells; host or cells: 143B cells (A5: live cells; A6: permeabilized mitochondria purified from them)
T1 sequence (P31040 43-664): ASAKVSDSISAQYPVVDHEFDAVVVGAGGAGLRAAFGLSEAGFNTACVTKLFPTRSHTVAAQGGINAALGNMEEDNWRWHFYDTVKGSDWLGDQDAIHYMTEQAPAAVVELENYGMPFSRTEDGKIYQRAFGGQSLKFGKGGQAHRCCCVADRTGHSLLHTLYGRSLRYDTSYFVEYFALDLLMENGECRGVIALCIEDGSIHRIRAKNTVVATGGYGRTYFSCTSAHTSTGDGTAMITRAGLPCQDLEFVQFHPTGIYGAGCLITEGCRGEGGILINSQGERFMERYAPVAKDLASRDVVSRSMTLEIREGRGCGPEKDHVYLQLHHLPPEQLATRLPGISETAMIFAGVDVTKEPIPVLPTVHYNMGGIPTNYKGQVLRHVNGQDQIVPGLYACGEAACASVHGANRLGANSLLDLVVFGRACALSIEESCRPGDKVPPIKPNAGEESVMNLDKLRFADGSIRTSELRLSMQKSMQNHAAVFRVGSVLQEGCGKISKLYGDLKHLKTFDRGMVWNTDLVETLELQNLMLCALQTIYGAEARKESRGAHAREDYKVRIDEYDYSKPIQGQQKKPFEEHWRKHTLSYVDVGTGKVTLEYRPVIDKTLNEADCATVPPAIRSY
T1 sequence (P21912 29-280): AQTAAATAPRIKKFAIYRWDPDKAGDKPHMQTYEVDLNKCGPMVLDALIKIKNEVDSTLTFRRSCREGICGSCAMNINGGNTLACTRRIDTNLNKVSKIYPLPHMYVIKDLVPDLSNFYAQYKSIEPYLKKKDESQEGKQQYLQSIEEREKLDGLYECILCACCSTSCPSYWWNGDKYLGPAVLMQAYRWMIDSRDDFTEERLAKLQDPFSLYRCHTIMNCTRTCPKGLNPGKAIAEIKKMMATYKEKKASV
T1 sequence (Q99643 30-169): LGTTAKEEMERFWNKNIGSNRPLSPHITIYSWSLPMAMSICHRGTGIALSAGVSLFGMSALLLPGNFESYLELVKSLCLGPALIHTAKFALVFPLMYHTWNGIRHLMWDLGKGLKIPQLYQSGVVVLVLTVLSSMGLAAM
T1 sequence (O14521 57-159): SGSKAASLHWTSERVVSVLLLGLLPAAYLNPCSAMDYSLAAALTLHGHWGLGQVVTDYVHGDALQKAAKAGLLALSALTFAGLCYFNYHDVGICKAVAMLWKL
Source text: Fumarate reduction can be monitored in cells by the stable isotope tracing of either ^13C4-aspartate or ^13C5^15N2-glutamine. ^13C4-aspartate contributes to the fumarate pool via oxaloacetate and malate and so should lead to the production of ^13C4-succinate upon fumarate reduction (FIG. 2B). ^13C5^15N2-glutamine contributes to the fumarate pool through the reductive arm of the TCA cycle via glutamate, α-ketoglutarate, isocitrate, citrate, oxaloacetate, and malate. A key distinction between the two labeling approaches is that ^13C5^15N2-glutamine enriches the fumarate pool more upon antimycin treatment due to enhanced reductive carboxylation flux, whereas ^13C4-aspartate labels the fumarate pool to equivalent extents in vehicle and antimycin-treated cells (FIG. 2C). Therefore, with stable isotope tracing of ^13C4-aspartate, the level of ^13C4-succinate is a direct measure of fumarate reduction, whereas the stable isotope tracing of ^13C5^15N2-glutamine requires a ratiometric analysis of labeled succinate to labeled fumarate to normalize for differences in the extent of fumarate labeling.
To test if hypoxia triggers electron leakage onto fumarate or a net-reversal of the SDH complex, the ^13C5^15N2-glutamine tracer was utilized, which enables simultaneous quantification of the forward and reverse activities of SDH through the generation of unique isotopologues upon flux through the oxidative arm (α-ketoglutarate to succinate) compared to the reductive arm (α-ketoglutarate—via citrate—to fumarate) of the TCA cycle (FIG. 2E). In this assay, the forward (succinate oxidation) reaction was defined as the ratio of percent labeled ^13C4-fumarate to its precursor ^13C4-succinate (FIG. 2E) and the reverse (fumarate reduction) as that of percent labeled ^13C3-succinate to its precursor ^13C3-fumarate (FIG. 2E). This type of analysis can be performed when the labeling is in the steady-state, which was determined to be after 4-8 hours of incubation with ^13C5^15N2-glutamine (FIG. S2E-F). This ratiometric analysis of the succinate and fumarate isotopologues eliminates potential biases in the assay, such as higher ^13C3-fumarate labeling in antimycin-treated cells caused increased reductive carboxylation flux (FIG. S2E).
Stable isotope tracing in cells: Cells were seeded 24 hours prior to the experiment in 6-well dishes at 70% density. For stable isotope tracing of glutamine, glutamine-free DMEM (ThermoFisher) was supplemented with 2 mM ^13C5^15N2-glutamine (Sigma), 1 mM pyruvate, 5% FBS, 1% P/S, 0.1 mg/mL uridine. For stable isotope tracing of aspartate, DMEM containing 5% FBS, and 1% penicillin and streptomycin, and 0.1 mg/mL uridine (Sigma) was supplemented with the designated amount of 13C4-aspartate (Sigma) and the pH adjusted to 7.4. Uridine was left out of the media for stable isotope tracing experiments measuring nucleotide biosynthesis. Unless otherwise stated, for all experiments, cells were treated for 8 hours and metabolites were isolated as described below. Relevant compounds were added at the start of the incubation periods.

[2] = test system: SDH complex; assay: SDH activity assay in permeabilized purified mitochondria; assay type: biochemical, human
Method: SDH activity was examined in permeabilized purified mitochondria. The rate of succinate oxidation was measured by monitoring fumarate production over time after initiating the reaction with succinate. The rate of fumarate reduction was measured in a separate assay by monitoring the rate of succinate production over time after initiating the reaction with fumarate and NADH. […] Moreover, complex I inhibition by piericidin suppressed the fumarate reduction caused by antimycin treatment (FIG. 2I).
Isolation of Mitochondria for Biochemical Assays: 143B cells were scraped and pelleted at 1000×g for 5 minutes. Cell pellets were washed in 1×PBS and pelleted at 1000×g for 5 minutes. For tissue samples, approximately 100 mg of tissue powder was weighed out. Tissue powder or cells were re-suspended in isolation buffer (200 mM sucrose, 10 mM Tris HCl, 1 mM EGTA/Tris, pH 7.4 (adjusted with 1M HEPES)), transferred into an ice-cold glass homogenizer (VWR), and dounced with 15-30 strokes. Homogenates were transferred into tubes and spun at 600×g for 10 minutes at 4° C. Supernatants were moved to a new tube and centrifugation was repeated. Then, supernatants were moved to a new tube and pelleted at 7,000×g for 10 minutes at 4° C. Pellets were washed in isolation buffer and centrifugation was repeated. Pellets were subsequently stored at −80° C. until use.
SDH Activity Assay: Purified mitochondria were re-suspended in buffer (0.22 M Mannitol, 0.075 M Sucrose, 1 mM EDTA, 10 mM HEPES pH 7.4, and one complete Protease inhibitor tablet (Sigma)) to a concentration of 5 mg/mL and underwent 5 freeze-thaw cycles to permeabilize them. 30 μg mitochondria (6 uL) were diluted 1:10 (in 54 uL) of SDH activity assay buffer (27.5 mM KH2PO4 pH 7.4, 1.1 mM CoQ-10 (Sigma), 3.5 g/L BSA). Reactions were supplemented with DMSO, 1 μM antimycin, or 1 μM piericidin and pre-incubated at 37° C. for 10 minutes. […] Samples were centrifuged at 16,000×g for 10 minutes at 4° C. and supernatants were dried down and analyzed by LC-MS for succinate and fumarate.

[3] = test system: complex 1 and DHODH; assay: Proliferation of WT and RquA cells in media without pyruvate or uridine; assay type: cell-based; settings: media − pyruvate, − uridine
Source text: Proliferation of WT and RquA cells in media that forces cells to use maximal complex 1 activity (− pyruvate) and maximal DHODH activity (− uridine). Complex 1 and DHODH are enzymes in the ETC that require an electron carrier (classically UQ) to catalyze their function. […] Rotenone was used as a control and inhibits complex 1 activity. Brequinar was used as a control and inhibits DHODH activity.

[4] = test system: complex I; assay: NAD+/NADH ratio in cells; assay type: cell-based, human; settings: SDHB-null cells treated with antimycin versus wild-type cells treated with antimycin
Method: Next, fumarate reduction was tested to determine if it sustains complex I activity in cells incapable of using O2 as a terminal electron acceptor. Both the NAD+/NADH ratio, which is an indicator of complex I-mediated NADH reoxidation, and the mitochondrial membrane potential (ΔΨ^Mito) to which complex I contributes via proton pumping. […] Thus, fumarate reduction supports partial complex I activity, specifically NADH reoxidation and ΔΨ^Mito, in cells incapable of reducing O2 in the ETC.

[5] = 13C5 15N2-glutamine tracing, 143B cells

| Substance | terminal electron acceptor use in the mammalian ETC ([1]; rhodoquinone generated by RquA expression in cells) | fumarate reduction (succinate production over time) ([2]; purified permeabilized mitochondria from WT and RquA-expressing cells, fumarate and NADH, absence of antimycin) | support of complex 1 and DHODH activities (proliferation) [3] | fumarate reduction (SDH reverse activity) [1, 5] | succinate oxidation (SDH forward activity) [1, 5] | conversion of fumarate into succinate (13C4-succinate production, 13C4-aspartate tracing) ([1]; WT 143B cells, 500 nM antimycin) | ratio of isotopologues: fumarate reduction over succinate oxidation ([1]; antimycin treatment (also hypoxia exposure)) | fumarate reduction and succinate oxidation reactions ([1]; cells lacking SDHA or SDHB) | NAD+/NADH ratio [4] | rate of succinate oxidation versus fumarate reduction (vehicle: succinate oxidation higher) ([2]; permeabilized purified mitochondria, 1 μM antimycin) |
| --- | --- | --- | --- | --- | --- | --- | --- | --- | --- | --- |
| rhodoquinone | promotes the use of fumarate as a terminal electron acceptor | sufficient to drive fumarate reduction | can carry electrons in the ETC and support complex 1 and DHODH activities | – | – | – | – | – | – | – |
| antimycin | – | – | – | increased | decreased | robustly stimulated | approximately 4 fold | not altered | lower | the opposite was the case |
